pIC50: −log10 of the molar value. Activity calls are given as the source filed them. The rule behind the calls is not given here.
Key:
DNA polymerase theta [1] = target: T1, DNA polymerase theta (Homo sapiens, UniProt O75417); assay: Inhibition of DNA polymerase theta (unknown origin) ATPase activity incubated for 60 mins in presence of ATP by ADP-glo kinase assay
[2] = target: T2, Poly [ADP-ribose] polymerase 1 (Homo sapiens, UniProt P09874); assay: Inhibition of human PARP1 incubated for 90 mins by colorimetric assay
HCC1937 = assay: Antiproliferative activity against BRCA1-deficient human HCC1937 cells assessed as inhibition of cell proliferation incubated for 5 days by MTT assay; type: functional, cell-based; conditions: HCC1937, 120 h
MDA-MB-436 [3] = assay: Antiproliferative activity against BRCA1-deficient human MDA-MB-436 cells assessed as inhibition of cell proliferation incubated for 5 days by MTT assay; type: functional, cell-based; conditions: MDA-MB-436, 120 h
HCT-116 = assay: Antiproliferative activity against BRCA2-deficient human HCT-116 cells assessed as inhibition of cell proliferation incubated for 5 days by MTT assay; type: functional, cell-based; conditions: HCT-116, 120 h
SK-OV-3 = assay: Antiproliferative activity against BRCA-proficient human SK-OV-3 cells assessed as inhibition of cell proliferation incubated for 5 days by MTT assay; type: functional, cell-based; conditions: SK-OV-3, 120 h
MCF-10A = assay: (§1) Antiproliferative activity against human MCF-10A cells assessed as inhibition of cell proliferation incubated for 5 days by MTT assay; type: toxicity, cell-based; conditions: mcf-10a
[4] = target: T2, Poly [ADP-ribose] polymerase 1; conditions: dose 10.0 nM, time 90.0 min
SW48 = assay: Antiproliferative activity against BRCA2-deficient human SW48 cells assessed as inhibition of cell proliferation incubated for 5 days by MTT assay; type: functional, cell-based; conditions: SW48, 120 h
[5] = as §1; type: toxicity, cell-based; conditions: human, MCF-10A cells
MDA-MB-436 [6] = assay: Inhibition of colony formation in human MDA-MB-436 cells at 2 uM incubated for 9 days by crystal violet staining based analysis; type: functional, cell-based; conditions: time 9.0 day
MDA-MB-436 [7] = assay: Inhibition of colony formation in human MDA-MB-436 cells at 2 to 10 uM incubated for 9 days in presence of novobiocin by crystal violet staining based analysis; type: functional, cell-based; conditions: dose 2-10 µM, time 9.0 day
MDA-MB-231 [8] = assay: Induction of apoptosis in human MDA-MB-231 cells at 2 uM incubated for 3 days by Annexin V-APC/7-AAD based flow cytometry analysis; type: functional; conditions: time 3 day
MDA-MB-231 [9] = assay: Induction of apoptosis in human MDA-MB-231 cells at 2 to 10 uM incubated for 3 days in presence of novobiocin by Annexin V-APC/7-AAD based flow cytometry analysis; type: functional; conditions: dose 2-10 µM, time 3 day
MDA-MB-231 [10] = assay: Induction of cell cycle arrest in human MDA-MB-231 cells assessed as accumulation of cells at G2/M phase at 2 uM incubated for 3 days by PI staining based flow cytometric analysis; type: functional; conditions: time 3.0 day
MDA-MB-231 [11] = assay: Induction of cell cycle arrest in human MDA-MB-231 cells assessed as accumulation of cells at G2/M phase at 10 uM incubated for 3 days in presence of novobiocin by PI staining based flow cytometric analysis; type: functional; conditions: time 3.0 day
MDA-MB-231 [12] = assay: Induction of DNA damage in human MDA-MB-231 cells assessed as increase in gammaH2AX foci at 2 uM incubated for 3 days by DAPI staining based confocal laser scanning microscopic analysis; type: functional, cell-based; conditions: time 3.0 day
MDA-MB-231 [13] = assay: Induction of DNA damage in human MDA-MB-231 cells assessed as increase in gammaH2AX foci at 2 to 10 uM incubated for 3 days in presence of novobiocin by DAPI staining based confocal laser scanning microscopic analysis; type: functional, cell-based; conditions: dose 2-10 µM, time 3.0 day
MDA-MB-231 [14] = assay: Induction of DNA damage in human MDA-MB-231 cells assessed as increase in tail intensity at 2 uM incubated for 3 days by florescence microscopic analysis; type: functional, cell-based; conditions: time 3.0 day
MDA-MB-231 [15] = assay: Induction of DNA damage in human MDA-MB-231 cells assessed as increase in tail intensity at 2 to 10 uM incubated for 3 days in presence of novobiocin by florescence microscopic analysis; type: functional, cell-based; conditions: dose 2-10 µM, time 3.0 day
MDA-MB-231 [16] = assay: Antiproliferative activity against 53BP1-knockdown human MDA-MB-231 cells incubated for 24 hrs by MTT assay; type: functional, cell-based
DNA polymerase theta [17] = target: T1, DNA polymerase theta; assay: Inhibition of human DNA polymerase theta (67 to 970 residues) ATPase activity expressed in Sf9 insect cells incubated for 40 mins by ADP-glo assay
DNA polymerase theta [18] = target: T1, DNA polymerase theta; assay: Inhibition of DNA polymerase theta (unknown origin) (1 to 899 residues) ATPase activity by NADH oxidation-coupled enzymatic assay
MDA-MB-436 [19] = assay: Inhibition of colony formation in human MDA-MB-436 cells at 10 uM incubated for 9 days by crystal violet staining based analysis; type: functional, cell-based; conditions: time 9.0 day
MDA-MB-436 [20] = assay: Inhibition of colony formation in human MDA-MB-436 cells at 2 to 10 uM incubated for 9 days in presence of olaparib by crystal violet staining based analysis; type: functional, cell-based; conditions: dose 2-10 µM, time 9.0 day
MDA-MB-231 [21] = assay: Induction of apoptosis in human MDA-MB-231 cells at 10 uM incubated for 3 days by Annexin V-APC/7-AAD based flow cytometry analysis; type: functional; conditions: time 3 day
MDA-MB-231 [22] = assay: Induction of apoptosis in human MDA-MB-231 cells at 2 to 10 uM incubated for 3 days in presence of olaparib by Annexin V-APC/7-AAD based flow cytometry analysis; type: functional; conditions: dose 2-10 µM, time 3 day
MDA-MB-231 [23] = assay: Induction of cell cycle arrest in human MDA-MB-231 cells assessed as accumulation of cells at G2/M phase at 10 uM incubated for 3 days by PI staining based flow cytometric analysis; type: functional; conditions: time 3.0 day
MDA-MB-231 [24] = assay: Induction of cell cycle arrest in human MDA-MB-231 cells assessed as accumulation of cells at G2/M phase at 10 uM incubated for 3 days in presence of olaparib by PI staining based flow cytometric analysis; type: functional; conditions: time 3.0 day
MDA-MB-231 [25] = assay: Induction of DNA damage in human MDA-MB-231 cells assessed as increase in gammaH2AX foci at 10 uM incubated for 3 days by DAPI staining based confocal laser scanning microscopic analysis; type: functional, cell-based; conditions: time 3.0 day
MDA-MB-231 [26] = assay: Induction of DNA damage in human MDA-MB-231 cells assessed as increase in gammaH2AX foci at 2 to 10 uM incubated for 3 days in presence of olaparib by DAPI staining based confocal laser scanning microscopic analysis; type: functional, cell-based; conditions: dose 2-10 µM, time 3.0 day
MDA-MB-231 [27] = assay: Induction of DNA damage in human MDA-MB-231 cells assessed as increase in tail intensity at 10 uM incubated for 3 days by florescence microscopic analysis; type: functional, cell-based; conditions: time 3.0 day
MDA-MB-231 [28] = assay: Induction of DNA damage in human MDA-MB-231 cells assessed as increase in tail intensity at 2 to 10 uM incubated for 3 days in presence of olaparib by florescence microscopic analysis; type: functional, cell-based; conditions: dose 2-10 µM, time 3.0 day
MDA-MB-231 [29] = assay: Antitumor activity against human MDA-MB-231 cells xenografted in BALB/c mouse assessed as tumor growth inhibition at 40 mg/kg, ip administered for 21 days; type: functional; conditions: MDA-MB-231, 504 h, time 21 day, read-out: TGI
MDA-MB-231 [30] = assay: Antitumor activity against human MDA-MB-231 cells xenografted in BALB/c mouse assessed as tumor growth inhibition at 40 mg/kg, ip administered for 21 days in presence of olaparib; type: functional; conditions: MDA-MB-231, 504 h, time 21 day, read-out: TGI

T2 sequence (P09874 whole entry): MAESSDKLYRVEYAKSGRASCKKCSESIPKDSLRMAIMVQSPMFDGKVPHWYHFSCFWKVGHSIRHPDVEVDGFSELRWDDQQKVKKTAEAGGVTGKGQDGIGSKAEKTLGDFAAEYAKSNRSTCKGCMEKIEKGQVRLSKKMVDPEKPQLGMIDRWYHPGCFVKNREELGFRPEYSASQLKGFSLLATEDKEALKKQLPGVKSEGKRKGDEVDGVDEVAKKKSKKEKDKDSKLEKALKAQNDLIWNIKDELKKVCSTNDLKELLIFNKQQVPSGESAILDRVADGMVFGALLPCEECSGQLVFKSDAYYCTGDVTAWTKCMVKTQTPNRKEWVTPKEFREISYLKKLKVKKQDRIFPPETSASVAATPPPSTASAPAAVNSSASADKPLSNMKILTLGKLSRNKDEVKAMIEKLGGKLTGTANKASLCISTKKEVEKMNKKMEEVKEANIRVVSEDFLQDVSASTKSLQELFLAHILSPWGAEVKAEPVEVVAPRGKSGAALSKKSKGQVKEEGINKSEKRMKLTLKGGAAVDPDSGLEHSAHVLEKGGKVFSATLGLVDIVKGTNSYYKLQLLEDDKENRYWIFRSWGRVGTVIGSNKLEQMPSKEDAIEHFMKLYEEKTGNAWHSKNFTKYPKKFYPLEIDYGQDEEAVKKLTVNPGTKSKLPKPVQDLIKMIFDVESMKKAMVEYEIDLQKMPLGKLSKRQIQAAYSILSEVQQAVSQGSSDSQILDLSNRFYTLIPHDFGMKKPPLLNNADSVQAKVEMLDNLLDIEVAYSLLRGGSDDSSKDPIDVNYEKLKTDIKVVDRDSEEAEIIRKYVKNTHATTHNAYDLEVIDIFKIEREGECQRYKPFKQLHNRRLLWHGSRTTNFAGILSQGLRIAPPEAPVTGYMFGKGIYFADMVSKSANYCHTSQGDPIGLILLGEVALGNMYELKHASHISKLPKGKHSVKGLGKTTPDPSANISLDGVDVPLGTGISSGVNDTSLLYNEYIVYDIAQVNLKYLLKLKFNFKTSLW
T1 sequence (O75417 whole entry): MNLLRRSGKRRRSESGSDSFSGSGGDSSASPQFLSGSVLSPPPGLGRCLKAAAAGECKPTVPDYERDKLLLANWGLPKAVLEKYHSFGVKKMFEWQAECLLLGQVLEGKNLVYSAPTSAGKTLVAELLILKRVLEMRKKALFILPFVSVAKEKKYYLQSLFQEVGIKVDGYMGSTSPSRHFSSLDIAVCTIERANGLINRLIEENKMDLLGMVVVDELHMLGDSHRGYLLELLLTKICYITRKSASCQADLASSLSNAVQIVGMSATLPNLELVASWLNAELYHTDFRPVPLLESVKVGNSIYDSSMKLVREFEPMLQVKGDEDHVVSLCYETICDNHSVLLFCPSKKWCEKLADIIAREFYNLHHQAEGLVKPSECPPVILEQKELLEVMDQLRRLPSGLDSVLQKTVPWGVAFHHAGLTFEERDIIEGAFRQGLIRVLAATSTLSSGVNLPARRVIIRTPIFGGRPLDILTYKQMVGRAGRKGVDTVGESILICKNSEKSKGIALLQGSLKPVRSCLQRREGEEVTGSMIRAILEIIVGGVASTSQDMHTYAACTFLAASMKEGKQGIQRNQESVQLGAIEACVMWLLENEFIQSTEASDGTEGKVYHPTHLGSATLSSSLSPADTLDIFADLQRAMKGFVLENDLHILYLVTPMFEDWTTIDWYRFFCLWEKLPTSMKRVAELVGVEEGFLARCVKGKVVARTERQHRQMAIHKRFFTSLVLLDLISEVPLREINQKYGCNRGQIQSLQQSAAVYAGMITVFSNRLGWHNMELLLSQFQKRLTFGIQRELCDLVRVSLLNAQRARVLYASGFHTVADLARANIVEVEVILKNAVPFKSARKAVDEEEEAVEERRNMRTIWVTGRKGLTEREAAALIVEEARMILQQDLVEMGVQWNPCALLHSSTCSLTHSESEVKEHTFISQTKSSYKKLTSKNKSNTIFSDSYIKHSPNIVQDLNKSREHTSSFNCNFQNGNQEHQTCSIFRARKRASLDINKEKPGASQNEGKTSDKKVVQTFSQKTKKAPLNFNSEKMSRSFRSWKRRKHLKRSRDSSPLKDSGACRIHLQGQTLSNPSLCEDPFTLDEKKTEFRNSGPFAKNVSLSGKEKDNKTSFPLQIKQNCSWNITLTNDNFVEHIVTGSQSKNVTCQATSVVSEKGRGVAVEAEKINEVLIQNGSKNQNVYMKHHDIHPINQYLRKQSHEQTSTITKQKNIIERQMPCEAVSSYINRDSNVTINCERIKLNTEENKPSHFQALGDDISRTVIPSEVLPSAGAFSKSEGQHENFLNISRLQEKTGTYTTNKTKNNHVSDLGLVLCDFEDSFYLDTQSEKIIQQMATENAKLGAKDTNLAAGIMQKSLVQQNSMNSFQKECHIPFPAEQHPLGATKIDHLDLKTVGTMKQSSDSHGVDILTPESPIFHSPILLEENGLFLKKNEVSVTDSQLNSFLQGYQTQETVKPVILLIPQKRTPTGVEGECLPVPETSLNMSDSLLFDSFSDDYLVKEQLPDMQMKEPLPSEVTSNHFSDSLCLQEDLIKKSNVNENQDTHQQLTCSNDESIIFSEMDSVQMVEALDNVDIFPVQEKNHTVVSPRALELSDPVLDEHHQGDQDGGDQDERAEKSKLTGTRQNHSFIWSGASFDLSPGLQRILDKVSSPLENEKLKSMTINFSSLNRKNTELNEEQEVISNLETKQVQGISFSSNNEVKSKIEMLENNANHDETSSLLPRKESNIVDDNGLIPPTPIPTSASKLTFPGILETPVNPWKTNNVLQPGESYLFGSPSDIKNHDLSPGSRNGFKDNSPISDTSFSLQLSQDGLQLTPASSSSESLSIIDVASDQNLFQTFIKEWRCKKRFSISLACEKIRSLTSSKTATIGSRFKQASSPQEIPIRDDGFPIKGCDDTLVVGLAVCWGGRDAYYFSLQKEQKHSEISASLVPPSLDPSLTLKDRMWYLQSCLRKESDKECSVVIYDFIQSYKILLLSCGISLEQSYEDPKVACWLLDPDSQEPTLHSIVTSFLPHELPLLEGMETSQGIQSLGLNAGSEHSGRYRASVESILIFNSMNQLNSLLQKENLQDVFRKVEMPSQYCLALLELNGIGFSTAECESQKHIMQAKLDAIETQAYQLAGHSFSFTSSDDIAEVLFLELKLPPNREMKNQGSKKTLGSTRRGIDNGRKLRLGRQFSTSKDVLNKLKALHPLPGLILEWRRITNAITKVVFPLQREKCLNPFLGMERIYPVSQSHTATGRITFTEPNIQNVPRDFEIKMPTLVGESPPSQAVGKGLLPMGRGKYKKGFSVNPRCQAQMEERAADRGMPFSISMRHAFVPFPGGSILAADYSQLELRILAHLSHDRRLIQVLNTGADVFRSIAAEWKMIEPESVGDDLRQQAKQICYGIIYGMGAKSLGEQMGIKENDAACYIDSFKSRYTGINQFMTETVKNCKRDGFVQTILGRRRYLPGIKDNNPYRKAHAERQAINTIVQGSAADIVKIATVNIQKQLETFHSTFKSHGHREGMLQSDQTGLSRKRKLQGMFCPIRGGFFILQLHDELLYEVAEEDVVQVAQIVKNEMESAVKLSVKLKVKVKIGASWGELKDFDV

Row | pIC50 (DNA polymerase theta [1]) | pIC50 (HCC1937) | pIC50 (MDA-MB-436 [3]) | pIC50 (HCT-116) | pIC50 (SK-OV-3) | inhibition [4] [%] | SMILES | also measured
1 | < 6.00 | – | – | – | – | 36.9 | COc1ccccc1-c1cnccc1C(=O)Nc1nnc(OCC2CN(C(=O)c3cc(Cc4n[nH]c(=O)c5ccccc45)ccc3F)C2)s1 | –
2 | – | 4.42 | 4.88 | – | 4.57 | – | O=C(c1cc(Cc2n[nH]c(=O)c3ccccc23)ccc1F)N1CCN(C(=O)C2CC2)CC1 [OLAPARIB] | pIC50 (SW48): 5.34; IC50 at 5 days [5]: > 80 µM; inhibition (MDA-MB-436 [6]): Active; inhibition (MDA-MB-436 [7]): Active; Activity (MDA-MB-231 [8]): 8.9%; Activity (MDA-MB-231 [9]): 14.2%; Activity (MDA-MB-231 [10]): Active; Activity (MDA-MB-231 [11]): Active; Activity (MDA-MB-231 [12]): Active; Activity (MDA-MB-231 [13]): Active; Activity (MDA-MB-231 [14]): Active; Activity (MDA-MB-231 [15]): Active; Activity (MDA-MB-231 [16]): inactive
3 | 8.62 | 4.21 | 4.23 | 4.33 | 4.04 | – | COc1ccccc1-c1cnccc1C(=O)Nc1nnc(OCc2ccc(Cl)cc2)s1 | pIC50 (DNA polymerase theta [17]): 8.62; pIC50 (DNA polymerase theta [18]): > 6.70; pIC50 (SW48; read-out: IC50): 4.87; IC50 at 5 days [5]: > 80 µM
4 | 7.10 | 4.18 | 5.26 | 5.14 | < 4.10 | 72.8 | COc1cccc(F)c1-c1cc(C)ncc1C(=O)Nc1nnc(OC2CC3(CCN(C(=O)c4cc(Cc5n[nH]c(=O)c6ccccc56)ccc4F)CC3)C2)s1 | IC50 (MCF-10A): Non-Toxic
5 | < 6.00 | – | – | – | – | 82.8 | COc1ccccc1-c1cnccc1C(=O)Nc1nnc(N2CC3(CCN(C(=O)c4cc(Cc5n[nH]c(=O)c6ccccc56)ccc4F)CC3)C2)s1 | –
6 | < 6.00 | – | – | – | – | 91.4 | COc1ccccc1-c1cnccc1C(=O)Nc1nnc(N2CCN(C(=O)c3cc(Cc4n[nH]c(=O)c5ccccc45)ccc3F)CC2)s1 | –
7 | 6.78 | – | – | – | – | 47 | COc1ccccc1-c1cnccc1C(=O)Nc1nnc(OC2CC3(CCN(C(=O)c4cc(Cc5n[nH]c(=O)c6ccccc56)ccc4F)CC3)C2)s1 | –
8 | 6.57 | – | – | – | – | 56.4 | COc1ccccc1-c1cnccc1C(=O)Nc1nnc(OC2CC3(C2)CN(C(=O)c2cc(Cc4n[nH]c(=O)c5ccccc45)ccc2F)C3)s1 | –

Further lines, the compound ahead of its results:

Row | SMILES | pIC50 (DNA polymerase theta [1]) | pIC50 (HCC1937) | pIC50 (MDA-MB-436 [3]) | pIC50 (HCT-116) | pIC50 (SK-OV-3) | inhibition [4] [%] | also measured
9 | COc1ccc(F)cc1-c1cc(C)ncc1C(=O)Nc1nnc(OC2CC3(CCN(C(=O)c4cc(Cc5n[nH]c(=O)c6ccccc56)ccc4F)CC3)C2)s1 | 7.14 | 4.24 | 5.04 | 5.08 | < 4.10 | 70.1 | pIC50 [2]: 8.33; IC50 (MCF-10A): Non-Toxic
10 | COc1ccccc1-c1cnccc1C(=O)Nc1nnc(OCc2cc(Cc3n[nH]c(=O)c4ccccc34)ccc2F)s1 | – | – | – | – | – | 30.3 | –
11 | COc1ccccc1-c1cnccc1C(=O)N1CCN(C(=O)c2cc(Cc3n[nH]c(=O)c4ccccc34)ccc2F)CC1 | < 6.00 | – | – | – | – | 87.9 | –
12 | COc1ccccc1-c1cnccc1C(=O)Nc1ncc(N2CCN(C(=O)c3cc(Cc4n[nH]c(=O)c5ccccc45)ccc3F)CC2)s1 | < 6.00 | – | – | – | – | 93.1 | –
13 | O=C(Nc1nnc(OCc2ccc(Cl)cc2)s1)c1cc(Cc2n[nH]c(=O)c3ccccc23)ccc1F | < 6.00 | – | – | – | – | – | –
14 | COc1cnc(C(F)F)cc1-c1cc(N2CCC(C)CC2=O)ncc1C(=O)Nc1nnc(C#CC2CC2)s1 (stereo not given) | – | – | – | – | – | – | pIC50 (DNA polymerase theta [18]): > 6.70
15 | COc1ccc(Cl)cc1-c1cc(C)ncc1C(=O)Nc1nnc(OC2CC3(CCN(C(=O)c4cc(Cc5n[nH]c(=O)c6ccccc56)ccc4F)CC3)C2)s1 | 7.22 | 4.05 | 4.98 | 5.21 | < 4.10 | 66.9 | IC50 (MCF-10A): Non-Toxic
16 | COc1ccccc1-c1cnccc1C(=O)Nc1nnc(OCC2CCN(C(=O)c3cc(Cc4n[nH]c(=O)c5ccccc45)ccc3F)CC2)s1 | 6.93 | 4.74 | 5.25 | 4.75 | 4.49 | 91.6 | IC50 (MCF-10A): Non-Toxic
17 | CO[C@@H]1[C@@H](OC(N)=O)[C@@H](O)[C@H](Oc2ccc3c(O)c(NC(=O)c4ccc(O)c(CC=C(C)C)c4)c(=O)oc3c2C)OC1(C)C [NOVOBIOCIN] | – | < 4.10 | 4.61 | < 4.10 | < 4.10 | – | pIC50 (SW48; read-out: IC50): < 4.10; IC50 at 5 days [5]: > 80 µM; inhibition (MDA-MB-436 [19]): Active; inhibition (MDA-MB-436 [20]): Active; Activity (MDA-MB-231 [21]): 6.4%; Activity (MDA-MB-231 [22]): 14.2%; Activity (MDA-MB-231 [23]): Active; Activity (MDA-MB-231 [24]): Active; Activity (MDA-MB-231 [25]): Active; Activity (MDA-MB-231 [26]): Active; Activity (MDA-MB-231 [27]): Active; Activity (MDA-MB-231 [28]): Active; inhibition in vivo at 40 mg/kg (MDA-MB-231 [29]): 45%; inhibition in vivo at 40 mg/kg (MDA-MB-231 [30]): 62.5%; Activity (MDA-MB-231 [16]): Active

From ChEMBL document CHEMBL5518204, “Discovery and Proof of Concept of Potent Dual Polθ/PARP Inhibitors for Efficient Treatment of Homologous Recombination-Deficient Tumors” (J Med Chem, 2024)
